Among the data in publication PMC7155171, “Probing the Open Global Health Chemical Diversity Library for Multistage-Active Starting Points for Next-Generation Antimalarials” (ACS Infectious Diseases, 2020) are IC50 and Emax values, retold here.

Where two headings read alike, the source gives them in different places.

The subject of test [1] is P. falciparum Dd2 (PfLuc) line expressing firefly luciferase, asexual blood stage. As to the kind of experiment: microbe, parasite or virus in culture. Format: cell-based, Plasmodium falciparum. The conditions noted are these: Plasmodium falciparum.
Test [2] deals with P. falciparum Dd2. As to the kind of experiment: SYBR green I asexual blood stage proliferation assay (96 h). In kind it is cell-based, Plasmodium falciparum. The conditions noted are these: Plasmodium falciparum, DD2, 11-pt dose response, 96hr.
The mark [3] stands for this setting: DD2, read-out: CDD P. falciparum Luciferase ABS 11-pt Reconfirmation Dose Response (48hr): IC50 (μM), 11-pt dose response, 48hr.
[4] abbreviates: DD2, 8-pt dose response, 96hr, read-out: CDD P. falciparum Luciferase ABS 8-pt Reconfirmation Dose Response (96hr): IC50.
Where [5] appears, read: DD2, 8-pt dose response, 96hr, read-out: CDD P. falciparum Luciferase ABS 8-pt Reconfirmation Dose Response (96hr): Maximum inhibition (%).
[6] abbreviates: DD2, 11-pt dose response, 48hr, read-out: CDD P. falciparum Luciferase ABS 11-pt Reconfirmation Dose Response (48hr): Maximum inhibition (%).
Where [7] appears, read: DD2, 11-pt dose response, 96hr, read-out: CDD P. falciparum Luciferase ABS 11-pt Reconfirmation Dose Response (96hr): IC50.
Setting [8] is: Sybr Green I, read-out: CDD P. falciparum Sybr Green I ABS 11-pt Reconfirmation Dose Response (96hr): IC50.
[9] abbreviates: Sybr Green I, read-out: CDD P. falciparum Sybr Green I ABS 11-pt Reconfirmation Dose Response (96hr): Maximum inhibition (%).
[10] abbreviates: DD2, 11-pt dose response, 96hr, read-out: CDD P. falciparum Luciferase ABS 11-pt Reconfirmation Dose Response (96hr): Maximum inhibition (%).
Setting [11] is: DD2, read-out: P. falciparum Luciferase ABS 11-pt Reconfirmation Dose Response (48hr): IC50, 11-pt dose response, 48hr.
Where [12] appears, read: DD2, 8-pt dose response, 96hr, read-out: P. falciparum Luciferase ABS 8-pt Reconfirmation Dose Response (96hr): IC50.
The mark [13] stands for this setting: DD2, 8-pt dose response, 96hr, read-out: P. falciparum Luciferase ABS 8-pt Reconfirmation Dose Response (96hr): Maximum inhibition (%).
Setting [14] is: DD2, 11-pt dose response, 48hr, read-out: P. falciparum Luciferase ABS 11-pt Reconfirmation Dose Response (48hr): Maximum inhibition (%).
[15] abbreviates: DD2, 11-pt dose response, 96hr, read-out: P. falciparum Luciferase ABS 11-pt Reconfirmation Dose Response (96hr): Maximum inhibition (%).
Setting [16] is: read-out: P. falciparum Sybr Green I ABS 11-pt Reconfirmation Dose Response (96hr): IC50.
The mark [17] stands for this setting: read-out: P. falciparum Sybr Green I ABS 11-pt Reconfirmation Dose Response (96hr): Maximum inhibition (%).
Where [18] appears, read: DD2, 11-pt dose response, 96hr, read-out: P. falciparum Luciferase ABS 11-pt Reconfirmation Dose Response (96hr): IC50.

Consider `Fc1ccccc1Cn1c(C2CCNCC2)cc2cccnc21` [DDD01057236], for which the half-maximal inhibitory concentration (IC50) – broadly, the point on the concentration scale where inhibition reaches its midpoint – was found to be 3.02 µM in test [1] (setting [3]), 0.41 µM in test [1] (setting [4]), 1.41 µM in test [1] (setting [7]) and 7030 nM in test [2] (setting [8]). Moreover, the Emax in test [1] (setting [5]) was determined as 92.4%; in test [1] (setting [6]) it was 64.7%; in test [2] (setting [9]), 70.6%.

Consider `COc1ccccc1C1(NCc2c(C)nc3c(C)cccn23)CCCC1` [DDD01057239], for which the IC50 in test [1] (setting [3]) is 4.35 µM; in test [1] (setting [4]), 0.71 µM; in test [1] (setting [7]), 1.55 µM; in test [2] (setting [8]), more than 1390 nM. The results for the Emax in test [1] (setting [6]), in test [1] (setting [10]) and in test [2] (setting [9]) were 60.6%, 92% and 68.9%, respectively.

`CC(C)Nc1cc(-c2c[nH]nc2C2CCN(C(=O)C3CC3)C2)ccn1` (centres unmarked) [DDD01057305]: the IC50 worked out at 5.35 µM in test [1] (setting [3]), 0.29 µM in test [1] (setting [4]), 1.73 µM in test [1] (setting [7]) and 8070 nM in test [2] (setting [8]). In addition, the Emax in test [1] (setting [5]) came to 95.7%; in test [1] (setting [10]), 98.4%; in test [2] (setting [9]) it was 76.9%.

With `CC(C)CNc1cc(-c2c[nH]nc2C2CCN(C(=O)C3CC3)C2)ccn1` (centres unmarked) [DDD01057306], the half-inhibitory concentration (IC50) in test [1] (setting [3]) is 5.71 µM; in test [1] (setting [4]) it was 0.28 µM; in test [1] (setting [7]), 1.93 µM; in test [2] (setting [8]), 5020 nM. The Emax in test [1] (setting [5]) was 95.6%; in test [1] (setting [10]) it was 96.6%; in test [2] (setting [9]), 50.9%.

On to `CC(C)Nc1cc(-c2c[nH]nc2C2CCN(C(=O)C3CCC3)C2)ccn1` (centres unmarked) [DDD01057307], for which the 50% inhibitory concentration (IC50) came out at 4.05 µM in test [1] (setting [3]), 0.23 µM in test [1] (setting [4]), 1.42 µM in test [1] (setting [7]) and 7490 nM in test [2] (setting [8]). Also, the Emax in test [1] (setting [5]) came to 94.3%; in test [1] (setting [10]), 95.8%; in test [2] (setting [9]), 72%.

On to `COc1cc(C(=O)NCC2(N(C)C)CCN(C)CC2)c2ccccc2n1` [DDD01057375], for which the half-inhibitory concentration (IC50) was more than 12.5 µM in test [1] (setting [11]); less than 0.00232 µM in test [1] (setting [12]); 0.00714 µM in test [1] (96 h incubation, Dd2 luciferase, read-out: 96 hour Pfluc IC50); more than 1390 nM in test [2] (setting [16]). Moreover, the Emax in test [1] (setting [13]) stood at 88.6%; in test [1] (setting [14]), 53%; in test [1] (setting [15]) it was 87.3%; in test [2] (setting [17]), 63.6%.

For `Fc1cccc(F)c1Cn1c(C2CCNCC2)cc2cccnc21` [DDD01057378], the IC50 in test [1] (setting [3]) was determined as 1.51 µM; in test [1] (setting [4]) it was 0.36 µM; in test [1] (setting [7]) it was 0.733 µM; in test [2] (setting [8]), 570 nM. The Emax in test [1] (setting [5]) was found to be 91.4%; in test [1] (setting [6]) it was 76%; in test [1] (setting [10]), 92.1%; in test [2] (setting [9]), 68.3%.

`Nc1cc(-c2c[nH]nc2C2CCCN2CCCc2ccccc2)ccn1` (centres unmarked) [DDD01057437]: the IC50 in test [1] (setting [3]) turned out to be 3.06 µM; in test [1] (setting [4]), 0.59 µM; in test [1] (setting [7]) it was 0.669 µM; in test [2] (setting [8]), 2260 nM. In addition, the Emax in test [1] (setting [5]) worked out at 96.2%; in test [1] (setting [6]), 63%; in test [1] (setting [10]) it was 100%; in test [2] (setting [9]) it was 96.1%.

Consider `Cc1nc(-c2ccc(F)c(F)c2)cc(C2CCNCC2)n1` [DDD01058356], for which the IC50 in test [1] (setting [3]) is more than 12.5 µM; in test [1] (setting [4]), 0.84 µM; in test [1] (setting [7]) it was 2.02 µM; in test [2] (setting [8]), 2100 nM. For the same compound, the Emax was found to be 88.2% in test [1] (setting [5]), 44.3% in test [1] (setting [6]), 86.7% in test [1] (setting [10]) and 68.9% in test [2] (setting [9]).

In the case of `OC1(c2ccc(F)cc2)CCN(Cc2ccccc2N2CCCC2)CC1` [DDD01058479], the IC50 in test [1] (setting [11]) came out at 3.24 µM; in test [1] (setting [12]) it was 1.38 µM; in test [1] (setting [18]), 1.95 µM; in test [2] (setting [16]), 5910 nM. Further, the Emax in test [1] (setting [13]) is 88.9%; in test [1] (setting [14]) it was 76.5%; in test [1] (setting [15]) it was 94.3%; in test [2] (setting [17]), 82.4%.

On to `Clc1cccc(C[C@@H]2NCCC[C@@H]2Nc2ccccc2)c1` [DDD01058682], for which the concentration for half-maximal inhibition (IC50) in test [1] (setting [11]) is 1.83 µM; in test [1] (setting [12]), 1.21 µM; in test [1] (setting [18]) it was 0.857 µM; in test [2] (setting [16]), 3390 nM. Also, the Emax in test [1] (setting [13]) stood at 94.7%; in test [1] (setting [14]) it was 99.1%; in test [1] (setting [15]) it was 101%; in test [2] (setting [17]), 93.6%.

For `Cc1nn(C)cc1C1=NS(=O)(=O)N(C)C(C(=O)Nc2ccc(Cl)cc2)=C1` [DDD01058696], the half-maximal inhibitory concentration (IC50) in test [1] (setting [3]) was found to be 1.23 µM; in test [1] (setting [4]), 0.34 µM; in test [1] (setting [7]), 0.511 µM; in test [2] (setting [8]), 705 nM. Besides, the Emax in test [1] (setting [5]) was 96.1%; in test [1] (setting [6]) it was 100%; in test [1] (setting [10]), 101%; in test [2] (setting [9]), 98.7%.

In the case of `Cn1ccnc1CN(Cc1ccccn1)Cc1ccccc1Cl` [DDD01058741], the concentration for half-maximal inhibition (IC50) amounted to 2.68 µM in test [1] (setting [3]), 0.59 µM in test [1] (setting [4]), 0.592 µM in test [1] (setting [7]) and 6140 nM in test [2] (setting [8]). Besides, the Emax in test [1] (setting [5]) worked out at 93.9%; in test [1] (setting [6]) it was 94.3%; in test [1] (setting [10]), 100%; in test [2] (setting [9]) it was 83.5%.

As to `Cc1ncc(CN(Cc2ccccn2)Cc2ccccc2Cl)n1C` [DDD01058742], the IC50 in test [1] (setting [3]) amounted to 3.44 µM; in test [1] (setting [4]), 0.51 µM; in test [1] (setting [7]) it was 0.999 µM; in test [2] (setting [8]), 1540 nM. Moreover, the Emax in test [1] (setting [5]) is 86.1%; in test [1] (setting [6]) it was 74%; in test [1] (setting [10]) it was 94.5%; in test [2] (setting [9]), 67.5%.

For the compound `Fc1ccc(F)c(CN2CCC(c3cc4ncccc4cn3)CC2)c1` [DDD01058752], the 50% inhibitory concentration (IC50) in test [1] (setting [3]) stood at 1.07 µM; in test [1] (setting [4]), 0.41 µM; in test [1] (setting [7]), 0.979 µM; in test [2] (setting [8]), 859 nM. The Emax in test [1] (setting [5]) amounted to 96.2%; in test [1] (setting [6]) it was 94.1%; in test [1] (setting [10]), 98%; in test [2] (setting [9]) it was 90.5%.

As for `Fc1cccc(CN2CCC(c3cc4ncccc4cn3)CC2)c1F` [DDD01058754], the IC50 is 1.06 µM in test [1] (setting [3]), 0.78 µM in test [1] (setting [4]), 0.571 µM in test [1] (setting [7]) and 309 nM in test [2] (setting [8]). Besides, the Emax in test [1] (setting [5]) was 94.4%; in test [1] (setting [6]) it was 95.6%; in test [1] (setting [10]) it was 99.9%; in test [2] (setting [9]), 86.9%.

`Clc1cccc(N[C@H]2CCCN[C@H]2Cc2ccccc2)c1` [DDD01058816]: the half-maximal inhibitory concentration (IC50) in test [1] (setting [3]) was found to be 1.92 µM; in test [1] (setting [4]), 1.06 µM; in test [1] (setting [7]) it was 0.64 µM; in test [2] (setting [8]), 3540 nM. Also, the Emax was 95.6% in test [1] (setting [5]), 100% in test [1] (setting [6]), 101% in test [1] (setting [10]) and 94.8% in test [2] (setting [9]).

In the case of `Cc1cc(CN2CCc3nc(-c4ccncc4)nc(O)c3CC2)c(C)s1` [DDD01058881], the half-maximal inhibitory concentration (IC50) amounted to 9.43 µM in test [1] (setting [11]), 1.72 µM in test [1] (setting [12]), 2.93 µM in test [1] (setting [18]) and 6280 nM in test [2] (setting [16]). For the same compound, the Emax was 88.5% in test [1] (setting [13]), 79% in test [1] (setting [14]), 93.4% in test [1] (setting [15]) and 78.2% in test [2] (setting [17]).

Take `FC(F)(F)c1cc(C2CCNCC2)nc(-c2ccsc2)n1` [DDD01058935]: the IC50 in test [1] (setting [3]) is more than 12.5 µM; in test [1] (setting [4]), 0.67 µM; in test [1] (setting [7]), more than 1.39 µM; in test [2] (setting [8]) it was 4360 nM. The Emax in test [1] (setting [6]) stood at 64.4%; in test [1] (setting [10]), 92.1%; in test [2] (setting [9]) it was 60.5%.
